Assays:
[1] = Stability of the 25-OH-D3-biotin compound in protonic solvent (NMR, HPLC); type: physicochemical; settings: protonic solvent pH 4-5; for HPLC analysis, compound intact: 200 days
Experimental: In each case 20 mg purified 25-OH-D3-biotin compound (25-OH-vitamin D3-3β-3′[6-N-(biotinyl)-hexamido]amidopropylether) from Example 1 was placed in an NMR test tube to which 1 ml solvent was added. The solvent was a mixture of deuterium chloroform:deuterium acetonitrile: D2O in the ratio 3:2:1 with a pH-value between 4 and 5. The samples were stored for 200 days under the conditions set out below and the NMR spectra were investigated at regular intervals. • Sample 1: light excluded at −20EC; • Sample 2 light excluded at +4−6EC; • Sample 3: light excluded at room temperature; • Sample 4: subject to strong light (on a window ledge) at room temperature.
An HPLC analysis confirmed that samples 1 and 2 were intact even after 200 days in protonic solvent.

[2] = tested on: vitamin D binding protein from goat serum; assay: RIA for determining competition with 3H-25-OH-vitamin D3 and displacement efficiency; design: unit not given here; settings: tracer 3H-25-OH-vitamin D3
Experimental: Displacement efficiencies on vitamin D binding protein from goat serum and competition with ^3H-250H-vitamin D3 were measured for three vitamin D derivates using a RIA. The tested derivatives were 25-OH-vitamin D, biotinylated 25-OH-vitamin D3 of example 1 and 25-OH-D3 dimer of example 10.
The dimer having a short spacer has a lower displacement efficiecy than the corresponding biotinylated compound with the longer spacer group. […] For comparision, compound C in WO 97/24127 (Holick et al.) could only displace the tritiated compound from human vitamin D binding protein when it was present in eleven-fold excess. […] A longer spacer group in the vitamin D dimer leads to a higher affinity to DBP. An eleven fold lower affinity on the other hand is typical for vitamin D derivatives lacking the 25 hydroxy group which is essential for high affinity to vitamin D binding protein DBP.

[3] = tested on: vitamin D-binding protein; assay: Competitive protein binding analysis (CBPA) with 3H-25-OH-vitamin D as tracer, cross reactions; design: species or system goat
Experimental: In each case 100 μl vitamin D binding protein, isolated from goat serum (1:15000 in assay buffer with 3% (w/v) PEG 6000) together with 10 μl standard, control or sample (10 μl result from the sample preparation) was placed in the wells. The microtitration plate was incubated for 24 hours at 4EC in the dark and subject to shaking. Then, the solution was removed from the wells and the wells washed five times in each case with 200 μl washing buffer.
Insofar as no other indication is given, all reagents, buffers and materials were the same as in above-mentioned Example 3. There served as competitive binding partner (tracer) tritium-labelled 25-OH-vitamin D3. Differing from Example 3, the measurement samples were purified by means of extraction (into individual values). For this purpose, in each case 50 μl sample [non-specific assay buffer NSB, standard, control, patients sample (plasma, serum or urine)] was introduced into a 1.5 ml disposable reaction container, 200 μl acetonitrile added, mixed, the container walls centrifuged free, and the mixture incubated for 20 to 30 minutes at 4EC. The mixture was centrifuged at 1700×g for 10 minutes. The determinations were effected with the results using duplicate values.
For this purpose 25 μl clear result was transferred to a glass test tube (or into a special-RIA-container from Sarstedt, Darmstadt) and 10 μl tracer (3H-25-OH-D), 300 μl assay buffer and 100 μl vitamin D-binding protein (not in NSB) added. The test tube contents were mixed, incubated for one hour at 4EC and, to remove non-bound radioactive tracer, 100 μl activated charcoal suspension (activated charcoal containing phosphate buffer with 0.1% NaN3) was added. The test tube content was mixed, incubated for 3 to 5 minutes at 4EC, and the active charcoal pelletized by means of centrifuging for 10 minutes at 1700×g. Then, in each case 400 μl of the result was transferred to a counter container (7 ml) and, after the addition of 2 ml scintillator liquid such as Aquasafe™ 300 or HiSafe™ III, the radioactivity present in the result was counted (2 minutes in a beta-counter). […]

[4] = 250 nmol/l added to serum treated with activated charcoal

With `C=C1CC[C@H](OCCCNC(=O)CCCCCNC(=O)CCCCC2SCC3NC(=O)NC32)C/C1=C/C=C1\CCC[C@@]2(C)C1CC[C@@H]2C(C)CCCC(C)(C)O` (stereo partly drawn) [Biotin-25OH-D3, 25-Hydroxy vitamin D3-3β-3′[6-N-(biotinyl)hexamido]-amidopropylether] the “HPLC analysis, compound intact” value ([1]; Sample 1: light excluded at -20EC) was “intact”, the “HPLC analysis, compound intact” value ([1]; Sample 2: light excluded at +4-6EC) was “intact” and the “HPLC analysis, compound still intact” value ([1]; Sample 3: light excluded at room temperature, after 100 days) was “more than 78%”. The degradation ([1]; Sample 4: strong light (window ledge) at room temperature) was “degraded after two months”, the B/Bo ([2]; Conc. 0.1 ng/ml) was 100 and the B/Bo ([2]; Conc. 1 ng/ml) was 99. It also gave a B/Bo ([2]; Conc. 10 ng/ml) of 63, a B/Bo ([2]; Conc. 100 ng/ml) of 15 and a B/Bo ([2]; Conc. 1000 ng/ml) of 8.

`C=C1CCC(O)C/C1=C\C=C1\CCCC2(C)C1CCC2C(C)CCC(O)C(C)(C)O` (centres unmarked) [24,25-(OH)2-vitamin D3] gave a cross-reaction [3, 4] of 100%.

`C=C1CC[C@H](O)C/C1=C/C=C1\CCC[C@]2(C)[C@@H]([C@H](C)CCCC(C)(C)O)CC[C@@H]12` [25-OH-D3, 25-OH-vitamin D3, reference compound] showed a B/Bo ([2]; Conc. 0.1 ng/ml) of 100, a B/Bo ([2]; Conc. 1 ng/ml) of 92 and a B/Bo ([2]; Conc. 10 ng/ml) of 33. It also gave a B/Bo ([2]; Conc. 100 ng/ml) of 10 and a B/Bo ([2]; Conc. 1000 ng/ml) of 7.

In the case of `C=C1/C(=C\C=C2/CCC[C@]3(C)[C@@H]([C@H](C)CCCC(C)(C)O)CC[C@@H]23)C[C@@H](O)C[C@@H]1O` [1,25-(OH)2-vitamin D3], the cross-reaction [3, 4] is reported as “no cross-reactivity”.

With `C=C1CC[C@H](O)C/C1=C/C=C1\CCC[C@]2(C)[C@@H]([C@H](C)/C=C/[C@H](C)C(C)(C)O)CC[C@@H]12` [25-OH-vitamin D2] the cross-reaction ([3]; 125 nmol/l added to serum treated with activated charcoal) was 60%.

From patent US8133694B2, “Functional vitamin D derivatives and method of determining 25-hydroxy- and 1α, 25-dihydroxy vitamin D” (Immundiagnostik AG, priority 1998, dated 2012)
